According to patent publication US11191820B2, “Method for inducing early T memory response with short peptides anti-tumor vaccine” (OSE IMMUNOTHERAPEUTICS, priority 2015, dated 2021):

What was measured:
Format in all cases: in vivo, human
[1] = test system: central memory T cells; assay: Cultured IFN-γ ELISPOT after 10-day in vitro stimulation of PBMC, phase 1/2 colon cancer trial of OSE-2101; set-up: key to net SFC of vaccine positive CTL responses: —, indicates SFC response did not meet criteria and vaccine response was negative; details: for Mean SFC: 10 colon patients
Procedure: (§1) Clinical study design. Both trials were designed as phase 1/2, open label, multi-center, single dose, multiple administration studies to evaluate the safety and immunogenicity of the OSE-2101 immunotherapy. Patients were treated with 1 ml OSE-2101 every 3 weeks for a total of six doses. Each dose was administered subcutaneously in the same vicinity in the deltoid or upper thigh region, or at a contralateral site if local side-effects were observed. The study duration for each completed patient was 18 weeks. Clinical responses or patient survival were not measured in either phase 1/2 studies.
(§2) Clinical sample processing. Blood or leukapheresis product was obtained from patients at the pre-treatment, the Week 9 and Week 18 time points, 3 weeks after the third and sixth dose of OSE-2101 respectively. Peripheral blood mononuclear cells (PBMC) were isolated from samples within 24 hours of collection using a FICOLL-PAQUE density gradient and cryopreserved in containers designed to ensure optimal freezing (Mr. Frosty, Nalgene). For use, cells were rapidly thawed at 37° C. then transferred to human AB serum-containing medium for work-up.
(§3) Measurement of central T memory cells responses and T effector memory cells. The CTL responses in 16 total patients (10 colon and six NSCLC) were monitored for CTL responses against each epitope and against the wild-type epitope of epitopes analogs. For each patient, the pre-treatment, Week 9 and Week 18 time points were batch-tested in the same experiment to allow pre- versus post-treatment response comparison in the same experiment. Central T memory cells responses were measured using an IFN-γ enzyme-linked immunospot (cultured ELISPOT) assay following in vitro stimulation of PBMC for 10 days with each vaccine epitope. Briefly, PBMC from each time point were stimulated on day 0 with 10 μg/ml of each epitope individually in replicate in 48-well culture plates (2×10^6 PBMC/well). All cultures were fed with rIL-2 (Endogen, Woburn, Mass.; 10 U/ml final concentration) on days 1, 4 and 7. Ten days after initiation of culture, cells were harvested and tested for activity against specific vaccine peptides and corresponding wild-type peptides of vaccine analogs in the T memory ELISPOT assay. Cells were tested in Millipore IP 96-well plates pre-coated with mouse anti-human IFN-γ antibody (Mabtech USA, Cincinnati, Ohio). Five×10^4 cells and 1.25×10^4 cells from each culture were plated in triplicate wells together with 10^5 irradiated autologous PBMC and 10 μg/ml peptide. As a control, CTL were also tested against an irrelevant HLA-A2.1-binding HBV peptide. After 20 hours incubation, T memory ELISPOT plates were developed by performing sequential incubations with biotinylated anti-human IFN-γ antibody (Mabtech USA), Avidin-Peroxidase Complex (APC, Vector Laboratories, Burlingame, Calif.), and 3-amino-9-ethyl carbazole (AEC) substrate (Sigma Aldrich, St. Louis, Mo.). Spot-forming cells (SFC) were enumerated using a computer-assisted image analysis system (Zeiss KS ELISPOT Reader, Carl Zeiss MicroImaging, Thornwood, N.J.). Data is reported as the net SFC per 5×10^4 cells after subtracting spots induced with the irrelevant HBV peptide.

[2] = test system: central memory T cells; assay: Central memory T cell cultured ELISPOT, phase 2 trial in advanced NSCLC
Procedure: CTL Immune responses measured though cultured Elispot. The immunogenicity was measured in Phase 2 clinical trial on cryopreserved PBMC from each test sample were thawed in 5% human culture medium (RPMI-1640 medium with 25 mM HEPES, supplemented with 5% human AB serum, 4 mM L-glutamine, 0.5 mM sodium pyruvate, 0.1 mM MEM non-essential amino acids, 100 μg/ml streptomycin, and 100 U/ml penicillin) containing 30 μg/ml DNAase. After centrifugation for 5 minutes at 1200 rpm, the cell pellets were resuspended in 5% human culture medium and washed 2 times. For the central Memory T cell cultured ELISPOT assay, 2×10^6/ml PBMC were placed in replicate wells in a 48-well plates and stimulated for 10 days with 10 μg/ml of each peptide. As a positive control, PBMC were also stimulated with a pool of recall viral peptides. Human rIL2 (10 U/ml) was added to the peptide-stimulated cultures at day 1, day 4 and day 7. After 10 days the stimulated cells were harvested and plated at a concentration of 5×10^4/well. Assay wells also received irradiated autologous PBMC (1×10^5/well) and 10 μg/ml peptide, either the vaccine peptide, irrelevant peptide or positive control peptides. Cells stimulated in vitro with each analog epitope were also tested against the corresponding wild-type epitope.
Data analysis and acceptance criteria. Mean and standard deviation (SD) of spots in replicate wells were calculated in all assays by transferring raw ELISPOT data from each experiment to an Excel-based computer program. Positive vaccine-induced T-cell responses were determined according to the criteria described below.
Acceptance Criteria for peptide-Induced specific T-cell response through central memory T cells: The positive criteria for CTL responses used in the phase 2 trial was identical to the criteria in the phase 1/2 trials which was established prospectively after analyzing the variability of pre-treatment responses in patients against each vaccine epitope and the irrelevant HBV control epitope. A positive peptide-induced CTL/T memory response to a given epitope met all of the following conditions: 1) was greater than 5 SFC above the irrelevant epitope response, 2) was greater than the mean SFC of the irrelevant epitope response, plus 2 SD, and 3) was two-fold greater than the SFC response in the pre-vaccination sample from the same patient, plus 2 SD. The inclusion of “plus two standard deviations” was used to accommodate the assay variability and served to increase the criteria stringency.

[3] = test system: central memory T cells; assay: Cultured IFN-γ ELISPOT after 10-day in vitro stimulation of PBMC, phase 1/2 NSCLC trial of OSE-2101; set-up: key to net SFC of vaccine positive CTL responses: —, indicates SFC response did not meet criteria and vaccine response was negative; details: for Mean SFC / No. Positive Responses: 6 NSCLC patients
Procedure: as §1, §2, §3

In the case of KVFGSLAFV [HER2.369L2V9 A], the “Mean SFC” value ([1]; Week 9) is reported as 120.8 SFC per 50,000 cells, the “Mean SFC” value ([1]; Week 18) is reported as 315.7 SFC per 50,000 cells and the “net SFC of vaccine positive CTL responses” value (from here on “net SFC”) ([1]; colon patient 551, Week 9) is reported as 134.7 SFC per 50,000 cells. The “net SFC” value ([1]; colon patient 551, Week 18) was 80.7 SFC per 50,000 cells, the “net SFC” value ([1]; colon patient 601, Week 9) was 112.7 SFC per 50,000 cells and the “net SFC” value ([1]; colon patient 601, Week 18) was 52.3 SFC per 50,000 cells. The “net SFC” value ([1]; colon patient 602, Week 9) was “—”, the “net SFC” value ([1]; colon patient 602, Week 18) was “—” and the “net SFC” value ([1]; colon patient 603, Week 9) was 30.0 SFC per 50,000 cells. The “net SFC” value ([1]; colon patient 603, Week 18) was “—”, the “net SFC” value ([1]; colon patient 604, Week 9) was 88.3 SFC per 50,000 cells and the “net SFC” value ([1]; colon patient 604, Week 18) was 314.7 SFC per 50,000 cells. The “net SFC” value ([1]; colon patient 605, Week 9) was 32.7 SFC per 50,000 cells, the “net SFC” value ([1]; colon patient 605, Week 18) was 33.7 SFC per 50,000 cells and the “net SFC” value ([1]; colon patient 606, Week 9) was “—”. For the same sequence, the “net SFC” value ([1]; colon patient 606, Week 18) was 71.0 SFC per 50,000 cells, the “net SFC” value ([1]; colon patient 607, Week 9) was 389.3 SFC per 50,000 cells and the “net SFC” value ([1]; colon patient 607, Week 18) was 1642.7 SFC per 50,000 cells. For the same sequence, the “net SFC” value ([1]; colon patient 608, Week 9) was “—”, the “net SFC” value ([1]; colon patient 608, Week 18) was “—” and the “net SFC” value ([1]; colon patient 609, Week 9) was 58.0 SFC per 50,000 cells. The “net SFC” value ([1]; colon patient 609, Week 18) was 14.7 SFC per 50,000 cells, the “% of patients with positive CTL/central memory T cell response” value ([2]; phase 2, month 9) was 29% and the “patients with positive CTL/central memory T cell response / patients tested” value ([2]; phase 2, month 9) was 2/7. The “% of patients with positive CTL/central memory T cell response” value ([2]; phase 2, month 12) was 50%, the “patients with positive CTL/central memory T cell response / patients tested” value ([2]; phase 2, month 12) was 2/4 and the “% of patients with positive CTL/central memory T cell response” value ([2]; phase 2, week 9) was 42%. For the same sequence, the “patients with positive CTL/central memory T cell response / patients tested” value ([2]; phase 2, week 9) was 14/33, the “% of patients with positive CTL/central memory T cell response” value ([2]; phase 2, week 18) was 44% and the “patients with positive CTL/central memory T cell response / patients tested” value ([2]; phase 2, week 18) was 14/32. For the same sequence, the “% of patients with positive CTL/central memory T cell response” value ([2]; phase 2, week 30) was 57%, the “patients with positive CTL/central memory T cell response / patients tested” value ([2]; phase 2, week 30) was 13/23 and the “Mean SFC” value ([3]; Week 9) was 84.3 SFC per 50,000 cells. The “No. Positive Responses” value ([3]; Week 9) was 1, the “Mean SFC” value ([3]; Week 18) was 109.3 SFC per 50,000 cells and the “No. Positive Responses” value ([3]; Week 18) was 4. The “net SFC” value ([3]; NSCLC patient 201, Week 9) was “—”, the “net SFC” value ([3]; NSCLC patient 201, Week 18) was “—” and the “net SFC” value ([3]; NSCLC patient 502, Week 9) was “—”. For the same sequence, the “net SFC” value ([3]; NSCLC patient 502, Week 18) was “—”, the “net SFC” value ([3]; NSCLC patient 504, Week 9) was 84.3 SFC per 50,000 cells and the “net SFC” value ([3]; NSCLC patient 504, Week 18) was 284.0 SFC per 50,000 cells. For the same sequence, the “net SFC” value ([3]; NSCLC patient 505, Week 9) was “—”, the “net SFC” value ([3]; NSCLC patient 505, Week 18) was 53.0 SFC per 50,000 cells and the “net SFC” value ([3]; NSCLC patient 532, Week 9) was “—”. For the same sequence, the “net SFC” value ([3]; NSCLC patient 532, Week 18) was 78.3 SFC per 50,000 cells, the “net SFC” value ([3]; NSCLC patient 651, Week 9) was “—” and the “net SFC” value ([3]; NSCLC patient 651, Week 18) was 22.0 SFC per 50,000 cells.
